# Entries after “also recorded” stand apart in the source; their conditions may differ.
# Legend:
# Staphylococcus aureus = assay: Direct killing of S. aureus by AmB alone; assay type: cell-based; details: AmB 2 μM alone vs saline
# Experimental: Staphylococcus aureus-coated gold grids were used to measure antibacterial activity of airway epithelial cultures (3, 4). Small diameter primary cultured epithelia were used for this experiment (0.33 cm^2). Bacteria-coated gold TEM grids were placed onto the apical surface of airway epithelia for 1 min after 48 hours of perfluorocarbon (FC-72, Sigma), 2 μM AmB, or 2 μM C35deOAmB treatment. As controls, bacteria-coated grids were also placed in saline or AmB in FC-72 laid over saline to simulate the administration method for 1 minute. After removal, bacteria on the grids were assessed for viability using Live/Dead BacLight Bacterial Viability assay (Invitrogen). Viability was determined in 4-6 fields to determine the percentages of dead bacteria.
# [1] = tested on: CuFi-1 (ΔF508/ΔF508) epithelia; assay: Ussing chamber short-circuit current response to CFTR activation; assay type: cell-based, human; details: AmB 2 μM, 48 h
# Experimental: To assess the presence of membrane-expressed CFTR, differentiated cultures of NuLi and CuFi-1 epithelia grown on Corning Costar 0.4 μm 24-well plate Transwell Clear Polyester Membrane inserts were used. NuLi and CuFi-1 epithelia were treated with 20 μL of perfluorocarbon (FC-72, Sigma) vehicle or 2 μM amphotericin B (AmB) sonicated into a suspension in FC-72. After 48 hours of incubation, the epithelia were mounted in a dual-channel Ussing chamber (Warner U2500) using the culture cup insert for Transwell adapter, 6.5 mm (Warner U9924T-06) and bathed on both the apical and basolateral sides with a HCO3^− solution (120 mM NaCl, 25 mM NaHCO3, 5 mM KCl, 2 mM CaC2, 1.2 mM MgC2, 13.75 mM NaH2PO4, pH 7.0) at 37° C. and gassed with compressed air. Dextrose was added to this solution immediately prior to experiments to a final concentration of 5.6 mM. Epithelial sodium channel (ENaC) and calcium-activated chloride channel (CaCC) were inhibited by apical addition of 1 μM amiloride and 1 μM DIDS (4,4′-disothiocyanostilbene-2,2′-disulfonic acid), respectively, to achieve a baseline for permeabilization. 10 μM forskolin/100 μM IBMX (3-isobutyl-1-methylxanthine) added apically was used to activate CFTR, and 1 μM CFTRinh-172 was used to inhibit CFTR. Each successive addition of reagent was allowed approximately 10 minutes to equilibrate before the addition of the next reagent (15).
# [2] = tested on: CuFi-1 (ΔF508/ΔF508) epithelia; assay: Basolateral to apical H14CO3- transport; assay type: cell-based, human; details: AmB 2 μM basolateral
# [3] = aerosolized / nebulized; cited from earlier work
# [4] = tested on: CuFi-1 (ΔF508/ΔF508) epithelia; assay: ASL cation concentrations by ICP-MS; assay type: cell-based, human; details: AmB 2 μM, 48 h, vs FC-72 vehicle
# Experimental: Small diameter CuFi-1 cultured epithelia were used for this experiment (0.33 cm^2). 24 hours prior to the start of experiment, the apical side of all cultured epithelia was rinsed three times with 200 μL warm PBS to remove excess mucus. Fresh USG media was added to the basolateral membrane. CuFi-1 epithelia were treated with either perfluorocarbon (FC-72) vehicle or 2 μM AmB suspended in FC-72, and incubated at 37° C. for 48 hours. 0.1 μL capacity microcapillary tubes (Drummond Scientific NC1453214) were placed into 200 μL pipette tips (Denville Scientific P1122). 48 hours after AmB addition, the microcapillary tubes were gently touched around the edge of the apical membrane of each epithelial culture insert until completely filled with ASL via capillary action. […] The sample was then quantitatively transferred to a 15 mL capacity conical vial by washing 3 times with 50 μL molecular biology grade water.
# Quantification of sodium, magnesium, potassium, and calcium was accomplished using inductively coupled plasma mass spectrometry (ICP-MS) of acidified samples. […] Quantitative standards were made using a mixed Na, Mg, K, and Ca standard at 100 μg/mL of each element (Inorganic Ventures, Christiansburg, VA, USA) which were combined to create a 100 ng/mL mixed element standard in 1.0% nitric acid (v/v). […]
# CuFi-1 epithelia = assay: Lactate dehydrogenase (LDH) cytotoxicity assay; assay type: cell-based, human; details: single AmB treatment, increasing time periods
# Experimental: Small diameter CuFi-1 cultured epithelia were used for this experiment (0.33 cm^2). An LDH Cytotoxicity Assay Kit (Cayman Chemical) was used to determine if AmB is toxic to CuFi-1 airway epithelia. Prior to treatment, media was removed from the basolateral side of epithelia and replaced with 500 µL of fresh USG media. Cultured epithelia were then treated with FC-72 vehicle, 2 and 50 μM AmB administered in perfluorocarbon (FC-72, Sigma) for 48 hours, 7 days, or 28 days. 48 hours prior to the end of each experiment time frame, basolateral media was changed again and […] of 10% Triton X-100 solution was added to the apical surface to elicit maximum release. On the day of the experiment, assay reagents were prepared according to kit instructions and 500 µL of USG media was added to three empty wells in a 24-well plate for background control. Culture inserts were removed from the wells and 250 µL of LDH Reaction Solution was added to each well. The plate was then gently shaken on an orbital shaker for 30 minutes at 37° C. Absorbance was read at 490 nm using a plate reader. % cytotoxicity was calculated as follows: […]
compound,measurement,setting,value
"C[C@@H]1[C@H](O)[C@@H](C)/C=C/C=C/C=C/C=C/C=C/C=C/C=C/[C@H](O[C@@H]2O[C@H](C)[C@@H](O)[C@H](N)[C@@H]2O)C[C@@H]2O[C@](O)(C[C@@H](O)C[C@@H](O)[C@H](O)CC[C@@H](O)C[C@@H](O)CC(=O)O[C@H]1C)C[C@H](O)[C@H]2C(=O)O [AmB, amphotericin B]",direct antibacterial activity against S. aureus,Staphylococcus aureus,insensitive to direct killing by AmB; also recorded: does not have antibacterial activity against S. aureus
same,short circuit current response to forskolin/IBMX of AmB-treated epithelia,[1],did not show an increase in short circuit current in response to forskolin/IBMX; also recorded: did not respond to chemical activation of CFTR
same,"basolateral to apical H^14CO3^− transport, basolateral addition of AmB",[2],did not; also recorded: caused no increase ASL ^14C bicarbonate; also recorded: did not raise ASL pH or increase H^14CO3^− secretion
same,safety of delivery to the lungs,[3],safely delivered to the lungs in aerosolized form
same,ASL cation concentrations,[4],unchanged as compared to vehicle-treated controls; also recorded: do not alter major cation concentrations in the ASL
same,"cytotoxicity (LDH release, percent of total lysis by Triton X)",CuFi-1 epithelia,did not cause increased cytotoxicity as compared to vehicle
